Earlier results in US8071602B2, “Piperidine and piperazine derivatives” (M's Science Corporation, priority 2005, dated 2011).

Tested on: rats
Details: microinjection

Structure (SMILES): Cc1ccccc1NC(=N)Nc1ccccc1C [DTG, 1,3-di-2-tolyl-guanidine]
- neck dystonia: induced neck dystonia

Structure (SMILES): COc1ccc(CCN2CCN(CCCc3ccccc3)CC2)cc1OC [SA-4503, 1-[2-(3,4-dimethoxyphenyl)ethyl]-4-(3-phenylpropyl)piperazine]
- neck dystonia: no effect
